Where “and” joins values, the source holds several entries; their conditions need not be identical. Equal entries are not always repeated. Where two headings read alike, the source gives them in different places.
Assays:
[1] = General cytotoxicity test on HepG2 cells; type: cell-based; settings: human, 72 h incubation, 200 to 0.78 µM, average values of several tests, read-out: Hep-G2 CC50, mkM
Experimental: Cell viability was assessed using the above method. Table 6. […] The results are presented as average values of activity obtained in several tests.

[2] = Enzyme stability in human liver S9 fractions; type: in vitro ADME; settings: pH 7.4; 0,5 mg/mL pooled human liver S9 fractions; 10 µM compound; 37°C; pH=7,4
Experimental: Measuring of candidates' enzyme stability enabled estimation of the stability of the present compounds towards the action of enzymes in human liver S9 fractions.
Enzyme degradation rate was measured by incubating the reaction mixture in a dry block thermostat at 37°C, said reaction mixture comprising 0,5 mg/mL of pooled human liver S9 fractions (XenoTech, USA, cat#H0610), 10 µM compound, 2 mM β-nicotinamide adenine dinucleotide (Carbosynth, UK, cat#NN10871) and 4 mM magnesium chloride in 0,1 M sodium-phosphate buffer, pH=7,4. The reaction was quenched with acetonitrile (100 µL of acetonitrile / 100 µL of the reaction mixture). After quenching, the samples were centrifuged at 10000 rpm for 10 minutes. Supernatant fluid was tested by chromatographic technique using Agilent1200 (Agilent, USA). Chromatographic analysis was performed in a gradient elution regime with a flow rate of 1 mL/min. A graph of the logarithm of substance's peak area as a function of time was made.

MV4-11 = assay: Cell-based antiproliferative test (AlamarBlue), MV4-11; settings: Homo sapiens, MV4-11, 120 h, 120 h incubation; average values of several tests; read-out: MV-4-11 IC50, mkM
KG-1 = assay: Cell-based antiproliferative test (AlamarBlue), KG-1; settings: Homo sapiens, KG-1; 120 h incubation; average values of several tests; read-out: KG-1 IC50, mkM
Experimental: (§1) Antiproliferative activity of CDK8 inhibitors according to the present invention was measured in a cell-based test on continuous cell cultures MV4-11 (biphenotypic myelomonocytic leukemia, ATCC® CRL-9591™), KG-1 (acute myeloid leukemia, ATCC® CCL-246™), HL-60 (acute promyelocytic leukemia, ATCC® CCL-240™) using a vital stain AlamarBlue (ThermoFisher, #DAL1100). The cells were grown in RPMI-1640 (PanEco, #C330p) medium with addition of 10% FBS (Gibco, #16140-071); washed and resuspended in culture medium with 10% FBS (Gibco, #16140-071) in 96-well culture plates (Corning, #3599) with ≈ 10 ×10^3 cells in […] of medium per well. The compounds in question were dissolved in DMSO and diluted with a medium with 10% FBS (Gibco, #16140-071) to a final concentration ranging form 0 to 100 µM. […] of diluted compounds were then added to each well (final DMSO concentration was less than 1%) and incubated under 5% CO2 atmosphere at 37°C for 120 h. After incubating, 15 µL of AlamarBlue (ThermoFisher, #DAL1100) reagent was added per well, contents of plates were mixed in an orbital shaker (Biosan, Latvia) and further incubated for 3-5 h at 37°C under 5% CO2 atmosphere. Number of living cells was estimated using a microplate spectrophotometer (Tecan Infinite M200Pro, Switzerland) measuring fluorescent signal at the excitation wavelength (λEx) of 540 nm and emission wavelength (λEm) of 590 nm.
(§2) IC50 was calculated using Magellan 7.2 software (Tecan, Switzerland) approximating experimental points by four-parameter logistic model with the optimization by Levenberg-Marquardt (table 7, table 7).

HL-60 = assay: Cell-based antiproliferative test (AlamarBlue), HL-60; settings: 120 h incubation, average values of several tests, read-out: HL-60 IC50, mkM
Experimental: as §1, §2

[3] = Enzyme stability in human liver microsomes; type: in vitro ADME; settings: pH 7.4; 0,5 mg/mL pooled human liver microsomes; 10 µM compound; 37°C; pH=7,4
How it was run: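 Pooled human liver microsomes (0,5 mg/mL) incubated at 37 °C with 10 µM compound, 2 mM β-NAD and 4 mM MgCl2 in 0,1 M sodium phosphate, pH 7,4. Samples quenched with acetonitrile and analysed by HPLC. Elimination rate constant taken from the slope of log peak area versus time, giving t1/2 and CLint.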

[4] = Chemical stability in simulated gastric fluid (SGF); type: physicochemical; settings: SGF without enzymes, pH=1,4; 10 µm; 2 hours at 37°C; substance amount in % after thermostatting
How it was run: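 Compounds at […] (diluted from DMSO stock) were incubated for 2 h at 37 °C in enzyme-free simulated gastric fluid, pH=1,4. HPLC peak areas before and after incubation gave the % of compound remaining.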

[5] = Chemical stability in human blood plasma; type: in vitro ADME; settings: pooled human blood plasma; 10 µM; 4 hours at 37°C; substance amount in % after thermostatting
How it was run: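 Pooled plasma from ten healthy human donors; compound diluted from 10 mM DMSO stock to 10 µm final and incubated 4 h at 37°C. After acetonitrile protein precipitation, HPLC peak areas before and after incubation were compared; value is % compound remaining.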

[6] = Permeability through Caco-2 cell monolayer; type: in vitro ADME; settings: human, Caco-2; for Papp A→B at 2 h, 10 µM: A->B transfer, pH 6.5 -> pH 7.4, 2 hours at 37 °C; for efflux ratio at 2 h, 10 µM: efflux = Papp B-A / Papp A-B
Experimental: Estimation of permeability through Caco-2 cell monolayer enables assessment of the ability of the substances to penetrate through biological membranes by means of both active and passive transport.
Intestinal epithelial cells Caco-2 were grown on filter inserts (pore size 0.4 µm, BD Falcon with High Density) for 21 days; monolayer integrity was then checked using Lucifer Yellow (Sigma-Aldrich, USA) according to the standard protocol. In A->B transfer ("intestinal lumen" - "blood stream" transfer), solutions of the test substances in buffer, pH 6.5 (HBSS, 10 mM HEPES, 15 mM glucose) at a concentration of 10 µM were added to the upper chamber; whereas the lower chamber was filled with buffer, pH 7.4 (HBSS, 10 mM HEPES, 15 mM Glucose, 1% BSA). In B->A transfer ("blood stream" - "intestinal lumen" transfer), the upper chamber was filled with buffer, pH 6.5, whereas the solutions of the test substances in buffer, pH 7.4, at a concentration of 10 µM were added to the lower chamber. A highly permeable substance propranolol was used as a control.
After 2 hours incubation at 37 ° C under an atmosphere containing 5% CO2, the amounts of the test substances in the upper and lower chambers were measured by HPLC using an Agilent1200 HPLC system (Agilent, USA), proteins were preliminarily precipitated with acetonitrile. Chromatographic analysis was performed in a gradient elution regime with a flow rate of 1 mL/min. The peak areas corresponding to the compounds were detected on chromatograms.
The value was calculated using the formula: efflux = Papp B−A /Papp A−B , [formula] where • Papp A-E - the value of permeability direct analysis A→ B; • Papp B-A - the value of the permeability of the reverse analysis B→ A.

SMILES | CC50 at 72 h ([1]; HepG2 cells) [µM] | microsomal CLint at 10 µM [2] [µL/min/mg] | IC50 (MV4-11) [µM] | IC50 (KG-1) [µM] | IC50 (HL-60; Homo sapiens, HL-60, 120 h) [µM] | microsomal CLint at 10 µM [3] [µL/min/mg] | Stability in SGF, % [4] | Stability in blood plasma, % [5] [%] | Papp A→B at 2 h, 10 µM [6] [×10⁻⁶ cm/s] | efflux ratio at 2 h, 10 µM [6] | CC50 at 72 h [1] [µM] | IC50 (HL-60) [µM]
Cn1cc(-c2ccc(-c3cnc(N)c4ncc(C(=O)NCC5CC5)cc34)cc2)cn1 [CDK8-3-40, 8-Amino-N-(cyclopropylmethyl)-5-(4-(1-methyl-1H-pyrazol-4-yl)phenyl)-1,7-naphthyridine-3-carboxamide] | 200 | 2.95 | 0.009 |  |  |  |  |  |  |  |  | 
CN(C)C(=O)c1cnc2cncc(-c3ccc(-c4cnn(C)c4)cc3)c2c1 [CDK8-3-22, N,N-Methyl-5-(4-(1-methyl-1H-pyrazol-4-yl)phenyl)-1,7-naphthyridine-3-carboxamide] | > 100 | 3 | 0.432 |  |  |  |  |  |  |  |  | 
CO[C@@H]1CCN(C(=O)c2cnc3cncc(-c4ccc(-c5cnn(C)c5)cc4)c3c2)C1 [CDK8-3-19, (R)-(3-Methoxypyrrolidin-1-yl)(5-(4-(1-methyl-1H-pyrazol-4-yl)phenyl)-1,7-naphthyridin-3-yl)methanone] | > 100 | 2.9 | 0.912 |  |  |  |  |  |  |  |  | 
COc1cccc(C(=O)c2c[nH]c3ncc(-c4ccc(N(C)C)cc4)cc23)c1 [CDK8-4-34, (5-(4-(Dimethylamino)phenyl)-1H-pyrrolo[2,3-b]pyridin-3-yl) (3-methoxyphenyl) methanone] | 2.6 |  | 0.14 | 0.2 | 0.081 | 24.2 | 99.5% | 100 |  |  |  | 
Cn1cc(-c2ccc(-c3cncc4ncc(N5CCCC5=O)cc34)cc2)cn1 [CDK8-3-17, 1-(5-(4-(1-Methyl-1H-pyrazol-4-yl)phenyl)-1,7-naphthyridin-3-yl)pyrrolidin-2-one] | > 20 |  | 8.85 | 3.93 | 46.5 | 10.7 | 100% | 100 |  |  |  | 
COCCNC(=O)c1ccc2nccc(-c3ccc(-c4cnn(C)c4)cc3)c2c1 [CDK8-6-14, N-(2-Methoxyethyl)-4-(4-(1-methyl-1H-pyrazol-4-yl)phenyl)quinoline-6-carboxamide] | > 50 |  | 11.7 | 9.6 | 66.5 | 11.8 | 100% | 100 | 64.1 | 0.44 |  | 
COCCNC(=O)c1cnc2cncc(-c3ccc(-c4cnn(C)c4)cc3)c2c1 [CDK8-3-18, N-(2-Methoxyethyl)-5-(4-(1-methyl-1H-pyrazol-4-yl)phenyl)-1,7-naphthyridine-3-carboxamide] | > 200 |  | 0.19 | 0.08 | 35 | 10.4 | 100% | 100 | 46.9 | 0.9 |  | 
O=C(C1CN(c2ccc3ncn(-c4ccc(-c5cn[nH]c5)cc4)c3c2F)C1)N1CCOCC1 [CDK8-1-14, (1-(1-(4-(1H-Pyrazol-4-yl)phenyl)-7-fluoro-1H-benzo[d]imidazol-6-yl)azetidin-3-yl)(morpholino)methanone] | > 100 |  |  | 23.2 | 33.9 | 12.4 | 92.5% and 100% | 100 | 39.9 | 0.79 | > 50 | 60.7
O=C(c1ccc2ncn(-c3ccc(-c4cn[nH]c4)cc3)c2c1)N1CCCCC1 [CDK8-1-3, (1-(4-(1H-Pyrazol-4-yl)phenyl)-1H-benzo[d]imidazol-6-yl)(piperidin-1-yl) methanone] | 59.1 |  | 2.08 | 27.6 | 81.4 | 24.8 | 100% | 97.7 | 64.1 | 0.44 |  | 
COc1cc(-c2cnc3[nH]cc(C(=O)c4cccnc4)c3c2)ccc1N1CCOCC1 [CDK8-4-27, (5-(3-Methoxy-4-morpholinophenyl)-1H-pyrrolo[2,3-b]pyridin-3-yl) (pyridin-3-yl) methanone] | > 100 |  | 0.05 | 5.21 | > 100 | 7.2 | 100% | 100 | 84.6 | 0.25 |  | 
Cn1cc(-c2ccc(-n3cnc4ccc(C(=O)N5CCC5)cc43)cc2)cn1 [CDK8-1-18, Azetidin-1-yl(1-(4-(1-methyl-1H-pyrazol-4-yl)phenyl)-1H-benzo[d]imidazol-6-yl) methanone] | > 100 |  | 4.8 | 2.13 | > 100 | 14.6 | 100% | 100 |  |  |  | 
Cn1cc(-c2ccc(-c3cncc4ncc(C(=O)N5CCC5)cc34)cc2)cn1 [CDK8-3-14, Azetidin-1-yl-(5-(4-(1-methyl-1H-pyrazol-4-yl)phenyl)-1,7-naphthyridin-3-yl) methanone] | > 100 |  | 0.2 | 0.05 | 69.8 | 13.6 | 100% | 100 | 39.8 | 1.35 |  | 
